Measured values published in ChEMBL document CHEMBL1146701, “Discovery of a novel bicycloproline P2 bearing peptidyl alpha-ketoamide LY514962 as HCV protease inhibitor” (Bioorg Med Chem Lett, 2004).
Values belong to the compound of their own block, whether it stands above or below them.

Legend:
[1] = test system: Hepatitis C virus NS3 protease; assay: Inhibitory activity against Protease using replicon assay […] at 25 uM concentration; settings: Rattus norvegicus
[2] = test system: Hepatitis C virus NS3 protease; assay: Cytotoxic activity against Protease in […] Huh-7 cells at 100 uM
[3] = target: Prothrombin (Homo sapiens) (UniProt P00734); assay: Inhibitory activity against thrombin; settings: concentration not given here
[4] = target: Kallikrein-1 (Homo sapiens) (UniProt P06870); assay: Inhibitory activity against kallikrein; settings: concentration not given here
Sequence of Kallikrein-1 (Homo sapiens) (P06870 25-262 limits assumed): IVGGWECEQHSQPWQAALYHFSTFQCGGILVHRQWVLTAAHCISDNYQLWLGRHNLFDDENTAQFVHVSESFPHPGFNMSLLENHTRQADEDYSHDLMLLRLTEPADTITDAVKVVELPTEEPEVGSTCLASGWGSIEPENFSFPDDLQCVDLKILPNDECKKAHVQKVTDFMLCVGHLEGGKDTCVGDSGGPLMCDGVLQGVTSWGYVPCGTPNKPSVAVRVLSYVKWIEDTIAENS

Rattus norvegicus [5] = assay: In vivo concentration in rat liver exposure 0-8 hour after oral administration 50 mg/kg; format: ADME, organism-based; parameters: dose 50 mg/kg, route oral
[6] = In vivo concentration in rat liver exposure 8 hour after oral administration 50 mg/kg; format: ADME, organism-based; parameters: dose 50 mg/kg, route oral; settings: read-out: C
Rattus norvegicus [7] = species on record: Rattus norvegicus; assay: Inhibitory activity against Protease using replicon assay […] at 25 uM concentration
Rattus norvegicus [8] = assay: In vivo area under curve in rat plasma exposure after oral administration 50 mg/kg; format: ADME, organism-based; parameters: dose 50 mg/kg, route oral
[9] = target: Serine protease 1 (Homo sapiens) (UniProt P07477); assay: Inhibitory activity against trypsin; settings: concentration not given here
Sequence of Serine protease 1 (Homo sapiens) (P07477 whole entry): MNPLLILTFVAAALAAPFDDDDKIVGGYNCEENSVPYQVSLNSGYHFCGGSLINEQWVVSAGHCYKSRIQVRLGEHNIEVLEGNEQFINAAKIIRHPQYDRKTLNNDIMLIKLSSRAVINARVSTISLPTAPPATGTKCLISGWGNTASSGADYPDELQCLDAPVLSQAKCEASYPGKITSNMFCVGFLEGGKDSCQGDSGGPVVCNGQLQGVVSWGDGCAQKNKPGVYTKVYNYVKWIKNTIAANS

[10] = target: Plasminogen (Rattus norvegicus) (UniProt Q01177); assay: Inhibitory activity against plasmin; settings: concentration not given here
Sequence of Plasminogen (Rattus norvegicus) (Q01177 97-581 limits assumed): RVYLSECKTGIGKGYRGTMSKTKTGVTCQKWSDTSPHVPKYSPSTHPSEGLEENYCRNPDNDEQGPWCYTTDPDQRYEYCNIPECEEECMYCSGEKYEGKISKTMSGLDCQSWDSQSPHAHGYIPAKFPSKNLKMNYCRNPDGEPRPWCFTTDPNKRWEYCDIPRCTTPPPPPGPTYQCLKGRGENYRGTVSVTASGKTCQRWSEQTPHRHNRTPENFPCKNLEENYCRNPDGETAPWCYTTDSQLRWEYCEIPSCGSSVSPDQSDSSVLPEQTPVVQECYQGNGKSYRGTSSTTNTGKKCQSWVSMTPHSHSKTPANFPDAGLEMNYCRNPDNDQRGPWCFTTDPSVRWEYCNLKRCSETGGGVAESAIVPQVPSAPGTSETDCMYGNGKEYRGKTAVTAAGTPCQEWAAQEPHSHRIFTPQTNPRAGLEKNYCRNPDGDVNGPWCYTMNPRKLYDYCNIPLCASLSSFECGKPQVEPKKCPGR
Sequence of Plasminogen (Rattus norvegicus) (Q01177 582-812 limits assumed): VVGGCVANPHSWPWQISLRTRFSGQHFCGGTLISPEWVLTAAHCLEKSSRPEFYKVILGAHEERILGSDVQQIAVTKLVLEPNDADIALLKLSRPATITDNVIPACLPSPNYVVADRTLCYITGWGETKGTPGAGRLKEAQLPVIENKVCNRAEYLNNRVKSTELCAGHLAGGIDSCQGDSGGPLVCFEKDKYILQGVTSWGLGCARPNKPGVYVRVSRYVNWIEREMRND

[11] = In vivo concentration in rat plasma exposure at 8 hour after oral administration 50 mg/kg; format: ADME, organism-based; parameters: dose 50 mg/kg, route oral; settings: read-out: C
[12] = In vivo maximum concentration in rat plasma exposure after oral administration 50 mg/kg; format: ADME, organism-based; parameters: dose 50 mg/kg, route oral
Huh-7 (Homo sapiens) = assay: Cytotoxic activity against human hepatoma Huh-7 cells at 100 uM concentration

inhibition [1]: 91%
SMILES: CCCC(NC(=O)[C@@H]1[C@H]2CC=C[C@H]2CN1C(=O)[C@@H](NC(=O)[C@@H](NC(=O)c1cnccn1)C(C)C)C(C)C)C(=O)C(=O)N[C@@H](C)CC (stereo not given in full)

inhibition [1]: 97%
SMILES: CCCC(NC(=O)[C@@H]1[C@H]2CC[C@H](F)[C@H]2CN1C(=O)[C@@H](NC(=O)[C@@H](NC(=O)c1cnccn1)C(C)C)C(C)C)C(=O)C(=O)N[C@@H](C)c1ccccc1 (stereo not given in full)
inhibition [2]: 33%

inhibition [1]: 98%
SMILES: CCCC(NC(=O)[C@@H]1[C@H]2CC[C@@H](OCOC)C2CN1C(=O)[C@@H](NC(=O)[C@@H](NC(=O)c1cnccn1)C(C)C)C(C)C)C(=O)C(=O)N[C@@H](C)c1ccccc1 (stereo not given in full)

inhibition [1]: -8%
SMILES: CCCC(NC(=O)[C@@H]1[C@H]2CC[C@H](F)[C@H]2CN1C(=O)[C@@H](NC(=O)[C@@H](NC(=O)c1cnccn1)C(C)C)C(C)C)C(=O)C(=O)N[C@@H](Cc1ccccc1)C(=O)O (stereo not given in full)

inhibition [3]: 12%
inhibition [4]: 0%
Caverage (Rattus norvegicus [5]): 6290 nM
concentration at 8 h [6]: 500 nM
inhibition (Rattus norvegicus [7]): 93%
AUC (Rattus norvegicus [8]): 2.86 µg/h/mL
inhibition [9]: 0%
inhibition [10]: 5%
concentration at 8 h [11]: 10 ng/mL
Cmax [12]: 2250 ng/mL
SMILES: CCCC(NC(=O)[C@@H]1[C@H]2CCC[C@H]2CN1C(=O)[C@@H](NC(=O)[C@@H](NC(=O)c1cnccn1)C(C)C)C(C)C)C(=O)C(=O)NC1CC1 (stereo not given in full)

inhibition [1]: 84%
SMILES: CCCC(NC(=O)[C@@H]1[C@H]2CC[C@H](F)[C@H]2CN1C(=O)[C@@H](NC(=O)[C@@H](NC(=O)c1cnccn1)C(C)C)C(C)C)C(=O)C(=O)NC1CC1 (stereo not given in full)

inhibition [1]: 97%
SMILES: CCCC(NC(=O)[C@@H]1[C@H]2CC=C[C@H]2CN1C(=O)[C@@H](NC(=O)[C@@H](NC(=O)c1cnccn1)C(C)C)C(C)C)C(=O)C(=O)N[C@@H](C)c1ccccc1 (stereo not given in full)
inhibition (Huh-7 (Homo sapiens)): 33%

inhibition [1]: 64%
SMILES: CCCC(NC(=O)[C@@H]1[C@H]2CCC(F)(F)[C@H]2CN1C(=O)[C@@H](NC(=O)[C@@H](NC(=O)c1cnccn1)C(C)C)C(C)C)C(=O)C(=O)NC1CC1 (stereo not given in full)

inhibition (Rattus norvegicus [7]): 97%
SMILES: CCCC(NC(=O)[C@@H]1[C@H]2CCC[C@H]2CN1C(=O)[C@@H](NC(=O)[C@@H](NC(=O)c1cnccn1)C(C)C)C(C)C)C(=O)C(=O)N[C@@H](C)c1ccccc1 (stereo not given in full)
